Measurements from US6329502A, “β-amino-α-hydroxycarboxylic acid derivatives and HIV protease inhibitors” (priority 1990, dated 2001).

biological target: T1, chemically synthesized HIV protease (Human immunodeficiency virus type 1 group M subtype B, UniProt P12497, C555A/C583A); assay type: biochemical; conditions: inhibitor 5 μM (final concentration)
T1 construct: The HIV protease was chemically synthesized; made in house; host or cells: chemical peptide synthesis, no expression host
Method: The HIV protease was chemically synthesized by replacement of two cysteine residues in the natural sequence [Science, 230, 349 (1985)] with alanine residues. The reaction mixture contained 100 mM MES buffer (pH 5.5), 40 mM of substrate (Ac-[…]NH2 trifluoro-acetate), inhibitors at varying concentrations dissolved in DMSO and 9.2 μg of the HIV protease in a total volume of 15 μl. Incubation was carried out at 37° C. for 60 min. The reaction was started by the addition of the enzyme and terminated by 15 μl of acetonitrile. The amount of a fragment peptide produced was measured by reversed-phase HPLC analysis using an internal standerd. The HPLC condition was as followes.
Solvent A: 0.1% trifluoroacetic acid aqueous solution
Gradient: B was increased in 1.0%/min from 100% of A,

With `CC[C@H](C)[C@H](NC(=O)[C@@H]1CCCN1C(=O)[C@@H](O)[C@H](Cc1ccccc1)NC(=O)[C@H](CC(N)=O)NC(=O)OCc1ccccc1)C(=O)NCC1CCCCC1` [Example 32, Benzyloxycarbonyl-Asn-(2S,3S)-AHPBA-Pro-Ile-NH--CH2 --C6 H11] as the compound, how does the “Residual Activity (%) 5 μM” value read?
The value was 4.0%.

same assay, conditions: inhibitor 1 mM

`NC(=O)C[C@H](N)C(=O)N[C@@H](Cc1ccccc1)[C@@H](O)C(=O)NCC1CCCCC1` [Example 9, H-Asn-(2R,3S)-AHPBA-NH--CH2 --C6 H11] was tested. Which “Residual Activity (%) 1 mM” value did it give?
The value was 92.1%.

“Boc-(2S,3S)-AHPBA-(cHexm)Gly-Ile-NH--CH2 --C6 H11 [Example 33]” was tested. Which “Residual Activity (%) 1 mM” value did it give?
The value was 85.6%.

How did the “Residual Activity (%) 1 mM” value turn out when `N[C@@H](CO)C(=O)N[C@@H](Cc1ccccc1)[C@H](O)C(=O)NCC1CCCCC1` [Example 14, H-Ser-(2S,3S)-AHPBA-NH--CH2 --C6 H11] was run?
Its value is 95.5%.

For `CC(C)(C)OC(=O)N[C@@H](CO)C(=O)N[C@@H](Cc1ccccc1)[C@@H](O)C(=O)NCC1CCCCC1` [Example 5, Boc-Ser-(2R,3S)-AHPBA-NH--CH2 --C6 H11], which “Residual Activity (%) 1 mM” value is on record?
Its value is 82.9%.

`CC(C)(C)OC(=O)N[C@@H](Cc1ccccc1)C(=O)N[C@@H](CC(N)=O)C(=O)N[C@@H](Cc1ccccc1)[C@@H](O)C(=O)NCC1CCCCC1` [Example 2, Boc-Phe-Asn-(2R,3S)-AHPBA-NH--CH2 --C6 H11] was tested. Which “Residual Activity (%) 1 mM” value did it give?
The value was 19.5%.

Which “Residual Activity (%) 1 mM” value does the source give for “H-Val-Val-(2R,3S)-AHPBA-(D)-Phe-(D)-Val-(D)-Val-NH2 [Example 23]” here?
The value was 28.3%.

For `CC(C)(C)OC(=O)N[C@@H](Cc1ccccc1)C(=O)N[C@@H](CO)C(=O)N[C@@H](Cc1ccccc1)[C@H](O)C(=O)NCC1CCCCC1` [Example 8, Boc-Phe-Ser(2S,3S)-AHPBA-NH--CH2 --C6 H11], which “Residual Activity (%) 1 mM” value is on record?
Its value is 47.0%.

How did the “Residual Activity (%) 1 mM” value turn out when `CC[C@H](C)[C@H](NC(=O)[C@@H]1CCCN1C(=O)[C@@H](O)[C@H](Cc1ccccc1)NC(=O)OC(C)(C)C)C(=O)NCC1CCCCC1` [Example 30, Boc-(2S,3S)-AHPBA-Pro-Ile-NH--CH2 --C6 H11] was run?
The value was 23.4%.

How did the “Residual Activity (%) 1 mM” value turn out when `N[C@@H](CO)C(=O)N[C@@H](Cc1ccccc1)[C@@H](O)C(=O)NCC1CCCCC1` [Example 12, H-Ser-(2R,3S)-AHPBA-NH--CH2 --C6 H11] was run?
The value was 89.7%.

With `NC(=O)C[C@H](NC(=O)[C@@H](N)Cc1ccccc1)C(=O)N[C@@H](Cc1ccccc1)[C@@H](O)C(=O)NCC1CCCCC1` [Example 10, H-Phe-Asn-(2R,3S)-AHPBA-NH--CH2 --C6 H11] as the compound, how does the “Residual Activity (%) 1 mM” value read?
Its value is 43.4%.

Which “Residual Activity (%) 1 mM” value does the source give for `N[C@@H](Cc1ccccc1)C(=O)N[C@@H](CO)C(=O)N[C@@H](Cc1ccccc1)[C@H](O)C(=O)NCC1CCCCC1` [Example 15, H-Phe-Ser-(2S,3S)-AHPBA-NH--CH2 --C6 H11] here?
Its value is 23.8%.

For `N[C@@H](Cc1ccccc1)C(=O)N[C@@H](CO)C(=O)N[C@@H](Cc1ccccc1)[C@@H](O)C(=O)NCC1CCCCC1` [Example 13, H-Phe-Ser-(2R,3S)-AHPBA-NH--CH2 --C6 H11], which “Residual Activity (%) 1 mM” value is on record?
Its value is 58.9%.

How did the “Residual Activity (%) 1 mM” value turn out when `CC(C)(C)OC(=O)N[C@@H](Cc1ccccc1)C(=O)N[C@@H](CC(N)=O)C(=O)N[C@@H](Cc1ccccc1)[C@H](O)C(=O)NCC1CCCCC1` [Example 4, Boc-Phe-Asn-(2S,3S)-AHPBA-NH--CH2 --C6 H11] was run?
Its value is 20.3%.

With `CC(C)(C)OC(=O)N[C@@H](CC(N)=O)C(=O)N[C@@H](Cc1ccccc1)[C@@H](O)C(=O)NCC1CCCCC1` [Example 1, Boc-Asn-(2R,3S)-AHPBA-NH--CH2 --C6 H11] as the compound, how does the “Residual Activity (%) 1 mM” value read?
The value was 32.8%.

`CC[C@H](C)[C@H](NC(=O)[C@@H]1CCCN1C(=O)[C@H](O)[C@H](Cc1ccccc1)NC(=O)OC(C)(C)C)C(=O)NCC1CCCCC1` [Example 31, Boc-(2R,3S)-AHPBA-Pro-Ile-NH--CH2 --C6 H11] was tested. Which “Residual Activity (%) 1 mM” value did it give?
Its value is 47.4%.

For `CC(C)(C)OC(=O)N[C@@H](CC(N)=O)C(=O)N[C@@H](Cc1ccccc1)[C@H](O)C(=O)NCC1CCCCC1` [Example 3, Boc-Asn-(2S,3S)-AHPBA-NH--CH2 --C6 H11], which “Residual Activity (%) 1 mM” value is on record?
Its value is 52.9%.

For `NC(=O)C[C@H](NC(=O)[C@@H](N)Cc1ccccc1)C(=O)N[C@@H](Cc1ccccc1)[C@H](O)C(=O)NCC1CCCCC1` [Example 11, H-Phe-Asn-(2S,3S)-AHPBA-NH--CH2 --C6 H11], which “Residual Activity (%) 1 mM” value is on record?
The value was 16.4%.

Which “Residual Activity (%) 1 mM” value does the source give for `CC(C)(C)OC(=O)N[C@@H](Cc1ccccc1)C(=O)N[C@@H](CO)C(=O)N[C@@H](Cc1ccccc1)[C@@H](O)C(=O)NCC1CCCCC1` [Example 6, Boc-Phe-Ser-(2R,3S)-AHPBA-NH--CH2 --C6 H11] here?
Its value is 33.3%.

How did the “Residual Activity (%) 1 mM” value turn out when `CC[C@H](C)[C@H](NC(=O)[C@@H]1CCCN1C(=O)[C@@H](O)[C@H](Cc1ccccc1)NC(=O)OC(C)(C)C)C(=O)OC1CCCCC1` [Example 28, Boc-(2S,3S)-AHPBA-Pro-Ile-O--C6 H11] was run?
Its value is 63.9%.

Which “Residual Activity (%) 1 mM” value does the source give for `CC(C)(C)OC(=O)N[C@@H](CO)C(=O)N[C@@H](Cc1ccccc1)[C@H](O)C(=O)NCC1CCCCC1` [Example 7, Boc-Ser-(2S,3S)-AHPBA-NH--CH2 --C6 H11] here?
Its value is 15.6%.

For `CC[C@H](C)[C@H](NC(=O)[C@@H]1CCCN1C(=O)[C@H](O)[C@H](Cc1ccccc1)NC(=O)OC(C)(C)C)C(=O)OC1CCCCC1` [Example 29, Boc-(2R,3S)-AHPBA-Pro-Ile-O--C6 H11], which “Residual Activity (%) 1 mM” value is on record?
Its value is 88.3%.

biological target: recombinant HIV protease (Human immunodeficiency virus type 1 group M subtype B, UniProt P12497); conditions: inhibitor 5 μM (final concentration), 2.0 μg enzyme

With `CC[C@H](C)[C@H](NC(=O)[C@@H]1CCCN1C(=O)[C@@H](O)[C@H](Cc1ccccc1)NC(=O)[C@H](CC(N)=O)NC(=O)OCc1ccccc1)C(=O)NCC1CCCCC1` [Example 32, Benzyloxycarbonyl-Asn-(2S,3S)-AHPBA-Pro-Ile-NH--CH2 --C6 H11] as the compound, how does the residual enzymic activity read?
The residual enzymic activity was 11.0%.
